# Data reported in patent US12569563B2, “Selective HDAC6 degraders and methods of use thereof” (DANA-FARBER CANCER INSTITUTE, INC., priority 2019, dated 2026).
# Target: T1, CRBN (Homo sapiens, UniProt Q96SW2)
# T1 construct: endogenous in cells; host or cells: Flp-In 293 cells stably expressing BRD4BD2-eGFP-P2A-mCherry
# Assay: Cellular CRBN engagement assay (competition with dBET6, BRD4BD2-eGFP reporter)
# Format: cell-based
# Conditions: Flip-In 293 BRD4BD2-eGFP cells, 100 nM dBET6, 5 h
# Text: The cellular CRBN engagement assay measures the cellular binding affinity which is the combination of the compound's cell permeability and their binding affinity to CRBN. This is done by measuring the ability of thalidomide-based degrader molecules to compete with pan-BET bromodomain degrader dBET6 (Nowak et al., Nat. Chem. Biol. 14:706-714 (2018)) for CRBN binding in cells. If no degrader compound is present in the cell, BRD4BRD2-eGFP is degraded by dBET6 via the proteasome system. […]
# Cells were seeded at 30-50% confluency in either 24, 48 or 96 well plates (3524, 3548, 3596 respectively, Costar) a day before compound treatment. The inventive compounds were titrated in the presence of 100 nM dBET6 and then were incubated with cells for 5 h following trypsinization and resuspension in DMEM media, transferred into 96-well plates (353910, Falcon®) and analyzed by flow cytometer (Guava® easyCyte™ HT, Millipore®). Signal from at least 3000 events per well was acquired and the eGFP and mCherry florescence monitored. Data was analyzed using FlowJo® (FlowJo®, LCC). Forward and side scatter outliers, frequently associated with cell debris, were removed leaving >90% of total cells, followed by removal of eGFP and mCherry signal outliers, leaving 88-90% of total cells creating the set used for quantification. […]
structure (smiles),measurement,value
"CN(C(=O)CCCCCNc1cccc2c1C(=O)N(C1CCC(=O)NC1=O)C2=O)c1ccc(NC(=O)CCCCCCC(=O)NO)cc1 (stereo not shown) [Compound 2, N^1-(4-(6-((2-(2,6-dioxopiperidin-3-yl)-1,3-dioxoisoindolin-4-yl)amino)-N-methylhexanamido)phenyl)-N^8-hydroxyoctanediamide]",IC50,5.37 µM
